Results: patent US20060235062A1, “Novel heterocyclic analogs of diphenylethylene compounds” (THERACOS, INC., priority 2002, published 2006)

Experiments:
DBA/1 Lac mice = assay: Collagen-induced arthritis in mice; format: in vivo; conditions: 50 mg/kg orally daily for 17 days
AIA rats = assay: Cancellous bone loss in adjuvant induced arthritic (AIA) rats, MicroCT of right proximal tibia; format: in vivo, male Lewis rats
ob/ob mice = assay: Liver enzymes AST/GOT and ALT/GPT in sera of ob/ob mice; format: in vivo; conditions: 21 days, orally 50 mg/kg, vs untreated or troglitazone-treated mice

For COC(=O)C(=Cc1cc(OC)cc(OC)c1)c1ccc(Oc2ccc(CC3SC(=O)NC3=O)cc2)cc1 (stereo not drawn) [Compound 11, 3-(3,5-Dimethoxyphenyl)-2-{4-[4-(2,4-dioxothiazolidin-5-ylmethyl)-phenoxy]-phenyl}-acrylic acid methyl ester], the “body weight vs vehicle group” value (DBA/1 Lac mice; FIG. 13A) was “no change”, the “clinical scores vs vehicle treated group” value (DBA/1 Lac mice; FIG. 13B) was “significantly lower” and the “joints affected vs vehicle treated group” value (DBA/1 Lac mice; FIG. 13C) was “significantly lower”. The “paw thickness vs vehicle treated group” value (DBA/1 Lac mice; FIG. 13D) was “significantly lower”, the “less cancellous bone lost” value (AIA rats; AIA rats, treated vs vehicle) was about 50% and the C.Th (AIA rats; right proximal tibia) was 186 ± 25 μm. The “Conn. Dens” value (AIA rats; right proximal tibia) was 38.3 ± 19.7 l/mm3, the “SMI (0-3)” value (AIA rats; right proximal tibia) was 2.8 ± 0.3 and the Tb.N (AIA rats; right proximal tibia) was 2.6 ± 0.5 l/mm. For the same molecule, the BV/TV (AIA rats; right proximal tibia, compound 11 50 mg/kg oral, etanercept 1.67 mg/kg i.p., once daily) was 13.7 ± 4.7%, the AST level (ob/ob mice; FIG. 7A) was “not elevated” and the ALT level (ob/ob mice; FIG. 7B) was “did not elevate”.
